From patent publication US12290519B2, “Anti-inflammatory coupling compound drug, and preparation method therefor and use thereof” (COVAL BIOPHARMA (SHANGHAI) CO., LTD., priority 2021, dated 2025)

Assay: Hydrolysis rate / drug release rate of the compounds (release of JAK inhibitor, HPLC)
Format: physicochemical
Details: % release of JAK inhibitor from sample in acetonitrile/water=7/3 (v/v), 37° C. constant temperature shaker, sampled days 1-4, HPLC
Method: Analysis Method for Hydrolysis Rate of Compounds of the Present Invention
1. Preparation of Standard Working Curve Solution
(§1) About 10 mg of JAK inhibitors (tofacitinib and baricitinib) reference substances were weighed into a 25 mL volumetric flask, acetonitrile/water=7/3 (v/v) was added to dissolve and dilute to the marked volume, serving as a stock solution. The stock solution was diluted with a suitable dilution factor to obtain linear solutions of each concentration: 0.0002 mg/mL, 0.0004 mg/mL, 0.004 mg/mL, 0.04 mg/mL, and 0.08 mg/mL.
as §1, with “(Oclacitinib, Ruxolitinib, Delgocitinib,” for “(tofacitinib”, “Upadacitinib)” for “baricitinib)”
2. Preparation of Sample Solution
About 5 mg of the sample (the compound prepared in the present invention) was weighed into a 20 mL volumetric flask, acetonitrile/water=7/3 (v/v) was added to dissolve and dilute to the marked volume, serving as a stock solution. An appropriate amount of HPLC was loaded as the 0-day sample. The test solution was sealed with a sealing film and placed in a 37° C. constant temperature shaker. The test samples were taken at the same time on days 1, 2, 3, and 4 respectively. the release amount of JAK inhibitor in the sample was calculated according to the sample weight and JAK inhibitor standard curve.
3. Calculation Formula % Release of JAK Inhibitor r=100%×((AJAK Inhibitor−b)/a)/((W/20×M2/M1) wherein • AJAK inhibitor is the peak area of JAK inhibitor in the sample chromatogram • b is the intercept of the standard curve M1 is the molecular weight of the sample a is the slope of the standard curve
W is the sample weight (mg) M2 is the molecular weight of the JAK inhibitor
4. Chromatographic Conditions

| SMILES | Release Rate (%/day) |
| --- | --- |
| CC[C@@H]1CN(C(=O)NCC(F)(F)F)C[C@@H]1c1cnc2cnc3c(ccn3C(=O)[C@@H](C)c3ccc4cc(OC)ccc4c3)n12 [Ex. 131] | 3.56 |
| CCS(=O)(=O)N1CC(CC#N)(n2cc(-c3ncnc4c3ccn4C(=O)c3ccccc3Nc3cccc(C)c3C)cn2)C1 [Ex. 47, 2-(3-(4-(7-(2-((2,3-Dimethylphenyl)amino)benzoyl)-7H-pyrrolo [2,3-d]pyrimidin-4-yl)-1H-pyrazol-1-yl)-1-(ethylsulfonyl)azetidin-3-yl) acetonitrile] | 0.36 |
| Cc1cccc(Nc2ccccc2C(=O)OCn2ccc3c(N(C)[C@H]4CN(C(=O)CC#N)CC[C@H]4C)ncnc32)c1C [Ex. 67, (4-(((3R, 4R)-1-(2-cyanoacetyl)-4-methylpiperidin-3-yl) (methyl)amino)-7H-pyrrolo [2,3-d]pyrimidin-7-yl) methyl 2-((2,3-dimethylphenyl)amino) benzoate] | 0.02 |
| CNS(=O)(=O)C[C@H]1CC[C@H](N(C)c2ncnc3c2ccn3COC(=O)[C@@H](C)c2ccc(CC(C)C)cc2)CC1 [Ex. 88, (4-(Methyl ((trans)-4-((N-methylsulfamoyl)methyl)cyclohexyl)amino)-7H-pyrrolo [2,3-d]pyrimidin-7-yl) methyl (S)-2-(4-isobutylphenyl) propanoate] | 0.17 |
| CC(C(=O)OCn1ccc2c(N(C)[C@H]3CN(C(=O)CC#N)CC[C@H]3C)ncnc21)c1ccc(-c2ccccc2)c(F)c1 (stereo partly drawn) [Ex. 50, (4-(((3R, 4R)-1-(2-cyanoacetyl)-4-methylpiperidin-3-yl) (methyl)amino)-7H-pyrrolo [2,3-d]pyrimidin-7-yl) methyl 2-(2-fluoro-[1, 1′-biphenyl]-4-yl) propanoate] | 0.05 |
| CNS(=O)(=O)C[C@H]1CC[C@H](N(C)c2ncnc3c2ccn3COC(=O)Cc2ccc(NC(C)=O)cc2)CC1 [Ex. 93, (4-(Methyl ((trans)-4-((N-methylsulfamoyl)methyl)cyclohexyl)amino)-7H-pyrrolo [2,3-d]pyrimidin-7-yl) methyl 2-(4-acetamidophenyl) acetate] | 0.83 |
| CNS(=O)(=O)C[C@H]1CC[C@H](N(C)c2ncnc3c2ccn3COC(=O)[C@@H](NC(=O)OC(C)(C)C)c2ccccc2)CC1 [Ex. 91, (4-(Methyl ((trans)-4-((N-methylsulfamoyl)methyl)cyclohexyl)amino)-7H-pyrrolo [2,3-d]pyrimidin-7-yl) methyl (S)-2-((tert-butoxycarbonyl)amino)-2-phenylacetate] | 1.65 |
| Cc1c(Cl)cccc1Nc1ccccc1C(=O)n1ccc2c(-c3cnn([C@H](CC#N)C4CCCC4)c3)ncnc21 [Ex. 57, (R)-3-(4-(7-(2-((3-chloro-2-methylphenyl)amino)benzoyl)-7H-pyrrolo [2,3-d]pyrimidin-4-yl)-1H-pyrazol-1-yl)-3-cyclopentylpropanenitrile] | 0.57 |
| CC(=O)Nc1ccc(CC(=O)OCn2ccc3c(-c4cnn([C@H](CC#N)C5CCCC5)c4)ncnc32)cc1 [Ex. 110, (R)-(4-(1-(2-cyano-1-cyclopentylethyl)-1H-pyrazol-4-yl)-7H-pyrrolo [2,3-d]pyrimidin-7-yl) methyl 2-(4-acetamidophenyl) acetate] | 0.08 |
| CCC(C(=O)n1ccc2c(-c3cnn([C@H](CC#N)C4CCCC4)c3)ncnc21)c1ccc(N2Cc3ccccc3C2=O)cc1 (stereo partly drawn) [Ex. 34, (3R)-3-cyclopentyl-3-(4-(7-(2-(4-(1-oxoisoindolin-2-yl)phenyl)butanoyl)-7H-pyrrolo [2,3-d]pyrimidin-4-yl)-1H-pyrazol-1-yl) propanenitrile] | 1.57 |
| CNS(=O)(=O)C[C@H]1CC[C@H](N(C)c2ncnc3c2ccn3COC(=O)[C@@H](C)c2ccc3cc(OC)ccc3c2)CC1 [Ex. 89, (4-(Methyl ((trans)-4-((N-methylsulfamoyl)methyl)cyclohexyl)amino)-7H-pyrrolo [2,3-d]pyrimidin-7-yl) methyl (S)-2-(6-methoxynaphthalen-2-yl) propanoate] | 0.16 |
| CCC(C(=O)n1ccc2c1ncc1ncc([C@H]3CN(C(=O)NCC(F)(F)F)C[C@H]3CC)n12)c1ccc(N2Cc3ccccc3C2=O)cc1 (stereo partly drawn) [Ex. 138] | 2.15 |
| CCS(=O)(=O)N1CC(CC#N)(n2cc(-c3ncnc4c3ccn4COC(=O)Cc3ccccc3Nc3c(Cl)cccc3Cl)cn2)C1 [Ex. 70, Methyl (4-(1-(3-(cyanomethyl)-1-(ethylsulfonyl)azetidin-3-yl)-1H-pyrazol-4-yl)-7H-pyrrolo [2,3-d]pyrimidin-7-yl) 2-(2-((2,6-dichlorophenyl)amino)phenyl) acetate] | 0.42 |
| Cc1cccc(Nc2ccccc2C(=O)n2ccc3c(N(C)[C@H]4CN(C(=O)CC#N)CC[C@H]4C)ncnc32)c1C [Ex. 4, 3-((3R,4R)-3-((7-(2-((2,3-dimethylphenyl)amino)benzoyl)-7H-pyrrolo[2,3-d]pyrimidin-4-yl)(methyl)amino)-4-methylpiperidin-1-yl)-3-oxopropanenitrile] | 3.32 |
| CCS(=O)(=O)N1CC(CC#N)(n2cc(-c3ncnc4c3ccn4C(=O)C(C)c3cccc(C(=O)c4ccccc4)c3)cn2)C1 (stereo not drawn) [Ex. 19, 2-(3-(4-(7-(2-(3-benzoylphenyl)propanoyl)-7H-pyrrolo [2,3-d]pyrimidin-4-yl)-1H-pyrazol-1-yl)-1-(ethylsulfonyl)azetidin-3-yl) acetonitrile] | 6.25 |
| CC(=O)Oc1ccccc1C(=O)n1ccc2c(N(C)[C@H]3CN(C(=O)CC#N)CC[C@H]3C)ncnc21 [Ex. 15, 2-(4-((3R, 4R)-1-(2-cyanoacetyl)-4-methylpiperidin-3-yl) (methyl)amino)-7H-pyrrolo[2,3-d] pyrimidine-7-carbonyl)phenyl acetate] | 1.86 |
| CC(C)Cc1ccc(C(C)C(=O)n2ccc3c(N(C)[C@H]4CN(C(=O)CC#N)CC[C@H]4C)ncnc32)cc1 (stereo partly drawn) [Ex. 1, 3-((3R,4R)-3-((7-(2-(4-isobutylphenyl)propanoyl)-7H-pyrrolo [2,3-d]pyrimidin-4-yl) (methyl)amino)-4-methylpiperidin-1-yl)-3-oxopropanenitrile] | 8.26 |
| CC(C(=O)n1ccc2c(N(C)[C@H]3CN(C(=O)CC#N)CC[C@H]3C)ncnc21)c1ccc(-c2ccccc2)c(F)c1 (stereo partly drawn) [Ex. 8, 3-((3R, 4R)-3-((7-(2-(2-fluoro-[1, 1′-biphenyl]-4-yl)propanoyl)-7H-pyrrolo[2,3-d]pyrimidin-4-yl)(methyl)amino)-4-methylpiperidin-1-yl)-3-oxopropanenitrile] | 14.77 |
| CNS(=O)(=O)C[C@H]1CC[C@H](N(C)c2ncnc3c2ccn3COC(=O)c2ccccc2Nc2cccc(Cl)c2C)CC1 [Ex. 120, (4-(Methyl ((trans)-4-((N-methylsulfamoyl)methyl)cyclohexyl)amino)-7H-pyrrolo [2,3-d]pyrimidin-7-yl) methyl 2-((3-chloro-2-methylphenyl)amino) benzoate] | 0.42 |
| CC(C(=O)n1ccc2c(-c3cnn([C@H](CC#N)C4CCCC4)c3)ncnc21)c1ccc(CC2CCCC2=O)cc1 (stereo partly drawn) [Ex. 77, (3R)-3-cyclopentyl-3-(4-(7-(2-(4-((2-oxocyclopentyl)methyl)phenyl)propanoyl)-7H-pyrrolo [2,3-d]pyrimidin-4-yl)-1H-pyrazol-1-yl) propanenitrile] | 3.69 |
| CC(C(=O)OCn1ccc2c(N(C)[C@H]3CN(C(=O)CC#N)CC[C@H]3C)ncnc21)c1ccc(CC2CCCC2=O)cc1 (stereo partly drawn) [Ex. 53, (4-(((3R, 4R)-1-(2-cyanoacetyl)-4-methylpiperidin-3-yl) (methyl)amino)-7H-pyrrolo [2,3-d]pyrimidin-7-yl) methyl 2-(4-((2-oxocyclopentyl)methyl)phenyl) propanoate] | 0.06 |
| CC[C@@H]1CN(C(=O)NCC(F)(F)F)C[C@@H]1c1cnc2cnc3c(ccn3C(=O)C(C)c3cccc(C(=O)c4ccccc4)c3)n12 (stereo partly drawn) [Ex. 126, (3R, 4S)-3-(3-(2-(3-benzoylphenyl)propanoyl)-3H-imidazo [1,2-a]pyrrolo [2,3-e]pyrazin-8-yl)-4-ethyl-N-(2,2,2-trifluoroethyl) pyrrolidine-1-carboxamide] | 7.80 |
| COc1ccc2cc([C@H](C)C(=O)n3ccc4c(-c5cnn([C@H](CC#N)C6CCCC6)c5)ncnc43)ccc2c1 [Ex. 31] | 3.08 |
| CNS(=O)(=O)C[C@H]1CC[C@H](N(C)c2ncnc3c2ccn3C(=O)Cc2ccc(NC(C)=O)cc2)CC1 [Ex. 58, N-(4-(2-(4-(methyl ((trans)-4-((N-methylsulfamoyl)methyl)cyclohexyl)amino)-7H-pyrrolo [2,3-d]pyrimidin-7-yl)-2-oxoethyl)phenyl) acetamide] | 12.46 |
